Test results taken from PMC11397024, “Strategic Fluorination to Achieve a Potent, Selective, Metabolically Stable, and Orally Bioavailable Inhibitor of CSNK2” (Molecules, 2024).
≈ marks a conversion by molar mass, not a printed value.

Assays:
Kinetic solubility = assay type: physicochemical; conditions: phosphate buffered saline, 22 °C, aqueous buffer, kinetic from dmso stock; PBS pH 7.4 from DMSO stock
Protocol: Phosphate buffered saline (50 mL, PBS, Fisher (Pittsburgh, PA, USA), pH 7.4) was added to HPLC-grade H2O (450 mL) for a total dilution factor of 1:10 and a final PBS concentration of 1×. […] The final DMSO concentration was 2.0%, and the maximum theoretical compound concentration was 200 μM. The filter plate was heat-sealed for a 24 h incubation. The sample was placed on a rotary shaker (200 rpm) for 24 h at ambient temperature (21.6–22.8 °C) and then vacuum-filtered. All filtrates were injected into a chemiluminescent nitrogen detector for quantification. The equimolar nitrogen response of the detector was calibrated using standards that span the dynamic range of the instrument from 0.08 to 4500 μg/mL nitrogen. The filtrates were quantified with respect to this calibration curve. The calculated solubility values were corrected for background nitrogen present in DMSO and the media used to prepare the samples.

CSNK2 = experiment: In vivo CSNK2 inhibition (substrate phosphorylation in lungs); parameters: species or system Balb/c mice; conditions: 30 mg/kg p.o. b.i.d.
Protocol: Balb/c mice (female, 8-10 weeks old, from Envigo, Inotiv, Indianapolis, IN, USA) were treated with compound 2 at 30 mg/kg p.o. in a vehicle (DMSO/PEG-400/Water (v/v/v), 10:30:60). Mice were dosed every 12 h for a total of 36 h (3 doses). At the determined time points, mice were euthanized using an overdose of isoflurane (Baxter, Deerfield, IL, USA). Blood was collected via cardiac puncture and lung lobes were collected for downstream processing and analysis. Recovered blood was placed in EDTA tubes, spun at 5000× g in a microcentrifuge and the recovered plasma transferred to a clean tube and frozen at -80 °C until analysis. The left lung lobe was added to a 2 mL O-ring skirted tube containing 750 μL of 1 × PBS containing Phos Stop (per the manufacturer's recommendation, Roche) and glass beads. Lungs were homogenized for 60 s at 6000 rpm in a Roche MagNA Lyser. Homogenates were centrifuged for 5 min at 10,000 rpm and 500 μL of the homogenate was transferred to a clean tube and frozen at -80 °C until analysis. […] Samples were quantified using the Piece Rapid Gold BCA Protein Assay kit (ThermoFisher, A53226, Waltham, MA, USA), and 50 μg protein was run on 4-20% Tris-Glycine gels and transferred to PVDF. […] Bands were quantified using Fiji and normalized to GAPDH. […]

[1] = Snapshot (5 h) PK study with/without EA and 1-ABT; assay type: in vivo; conditions: male, CD-1, mouse, plasma, ip, 10 mg/kg, CD-1 mice, 10 mg/kg i.p.
Protocol: In the 5 h PK study investigating the effect of co-dosing EA and 1-ABT, two cohorts of male CD-1 mice (6–8 weeks old, 20–30 g) were dosed via intraperitoneal (i.p.) administration of compound 2 (10 mg/kg) as a 10 mL/kg volume of a 1.0 mg/mL solution in DMSO/PEG-400/saline (v/v/v, 10:30:60). EA (30 mg/kg) was administered i.p. as a 1.0 mL/kg volume of a 30 mg/mL solution in NMP/PEG-400/water (v/v/v, 10:60:30) as a 6 h pretreatment and again at the time of dosing with compound 2. 1-ABT (100 mg/kg) was administered p.o. as a 10 mL/kg volume of a 10 mg/mL solution in saline as a 2 h pretreatment. No co-treatment with EA or 1-ABT was applied to the first cohort. Co-treatment with EA (30 mg/kg) and 1-ABT (100 mg/kg) was applied in the second cohort. Two mice were dosed in each cohort. The mice had free access to water and food. Blood (0.03 mL) was collected from the dorsal metatarsal vein at 0.5, 1, 3, and 5 h time points. Each blood sample was transferred into a plastic microcentrifuge tube containing EDTA-K2 anticoagulant. Blood samples were centrifuged at 4000× g for 5 min at 4 °C to obtain plasma. The samples were stored in a freezer at −75 ± 15 °C prior to analysis. Plasma samples from the two mice from each cohort and each time point were pooled together for analysis. At 5 h post dose administration, the mice were anesthetized using increasing concentrations of CO2, and lung samples were collected. Lung samples were quickly frozen in an ice box and stored at −75 ± 15 °C. Prior to analysis, all lung samples were weighed and homogenized with phosphate-buffered saline (PBS) in a lung weight (g)/buffer volume (mL) ratio of 1:3. The final compound concentration was calculated by multiplying the detected concentration by a dilution factor of four.
Concentrations of the test compound in the plasma samples were determined using a Prominence LC-MS/MS system with a DGU-20A5R(C) degasser, LC-30AD pump, CBM-20A system controller, SIL-20AC HT autosampler; Rack changer II, HALO 90A ES-CN (2.7 μm, 2.1 × 50 mm) column, and AB Sciex Triple Quan 5500 LC/MS/MS instrument. The mobile phase was 5–95% MeCN in H2O, with 0.1% formic acid. The desired serial concentrations of working solutions were achieved by diluting the stock solution of the analyte with 50% acetonitrile in water. A series of 10 µL working solutions […] were added to 10 μL of blank plasma or lung homogenate to achieve calibration standards of 0.5, 1, 2, 5, 10, 50, 100, 500, 1000 ng/mL in a total volume of 20 μL. A total of 5 quality control samples at 1 ng/mL, 2 ng/mL, 5 ng/mL, 100 ng/mL, and 800 ng/mL were prepared independently of those used for the calibration curves in the same manner. A 20 μL standard, 20 μL QC sample, and 20 μL of an unknown sample (10 µL plasma or lung homogenate with 10 µL blank solution) were added to 200 μL of acetonitrile containing internal standard mixture for precipitating protein. Then, the samples were vortexed for 30 s. After centrifugation at 4 °C and 4000 rpm for 15 min, the supernatant was diluted with ultrapure water at a ratio of 1:2 (v/v, 1:2), then 20 µL of diluted supernatant was injected into the LC/MS/MS system for quantitative analysis. PK parameters were calculated from the mean plasma concentration versus time using a noncompartmental model in WinNonlin Phoenix version 8.3.

CLK4 = target: T1, CLK4 (Homo sapiens, UniProt Q9HAZ1); experiment: NanoBRET dose-response CLK4; assay type: cell-based; conditions: highest concentration tested 30 μM
T1 construct: expressed in transfected cells; host or cells: HEK293

[2] = with both EA (30 mg/kg) and 1-ABT (100 mg/kg)

T1 sequence (Q9HAZ1 whole entry): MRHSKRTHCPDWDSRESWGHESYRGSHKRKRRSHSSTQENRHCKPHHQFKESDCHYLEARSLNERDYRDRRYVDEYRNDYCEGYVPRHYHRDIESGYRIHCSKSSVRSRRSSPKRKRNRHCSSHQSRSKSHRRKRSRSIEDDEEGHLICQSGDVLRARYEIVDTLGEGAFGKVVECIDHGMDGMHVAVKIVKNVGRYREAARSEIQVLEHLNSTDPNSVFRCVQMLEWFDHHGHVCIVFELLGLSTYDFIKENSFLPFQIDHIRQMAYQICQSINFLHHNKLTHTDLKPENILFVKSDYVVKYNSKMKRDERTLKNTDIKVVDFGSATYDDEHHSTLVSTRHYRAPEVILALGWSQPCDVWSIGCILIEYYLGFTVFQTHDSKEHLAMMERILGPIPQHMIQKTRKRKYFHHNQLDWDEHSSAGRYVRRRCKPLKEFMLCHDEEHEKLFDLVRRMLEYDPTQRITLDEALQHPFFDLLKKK

## CCC(=O)Nc1cc(Nc2cc(NC3CC3)n3ncc(C#N)c3n2)c(F)cc1N1CCC[C@H](NC)C1 [Compound 2, (S)-N-(5-((3-cyano-7-(cyclopropylamino)pyrazolo[1,5-a]pyrimidin-5-yl)amino)-4-fluoro-2-(3-(methylamino)piperidin-1-yl)phenyl)propionamide]
Kinetic solubility
  solubility kinetic at 24 h: 59 µg/mL (≈ 120 µM)
CSNK2; 3, 6, 36 h, small decrease at 3 h, p = 0.14
  EIF2S2 (phospho-Ser2) levels normalized to total EIF2S2 in mouse lungs: no statistically significant difference
CSNK2; 3 h time point, p = 0.0028
  AKT (phospho-Ser129) levels normalized to total AKT in mouse lungs: A decrease in the phosphorylation levels of Ser129 of AKT
[1]; no co-treatment
  AUC(0-t): 7.77 µM·h
  Cmax: 3.19 µM
  half-life: 2.5 h
[1]; [2]
  AUC(0-t): 10.1 µM·h
  Cmax: 3.15 µM
  half-life: 3.7 h
CLK4
  IC50: > 30 µM
